# Measured values reported in patent US11155576B2, “Synthetic peptides, enzymatic formation of pericellular hydrogels/nanofibrils, and methods of use” (BRANDEIS UNIVERSITY, priority 2014, dated 2021).
# Assays:
# HeLa cells [1] = assay: Pericellular hydrogelation on HeLa cells (optical images); format: cell-based, human
# Procedure: An 11.2 mM (8.09 mg/mL) stock solution of D-2a was prepared in ddH2O. The pH was adjusted to 7.4 using 1N NaOH. 2×10^5 cells in exponential growth phase were seeded in 35 mm Petri dish with 1 mL complete culture medium. Following overnight incubation, the medium was replaced with 1 mL of medium containing D-2a (diluted from the stock solution immediately prior to use). Petri dishes were incubated at 37° C. for two hours. Next, dishes were removed from the incubator and titled on a bench to visualize the pericellular hydrogel. Prior to co-incubation with phosphatase inhibitors, cells were washed three times with medium containing Pierce phosphatase inhibitor cocktail (Thermo) (contains sodium floride, sodium orthovanadate, sodium pyrophosphate, and beta-glycerophosphate). Next, 1 mL of medium containing both the inhibitor cocktail and D-2a was applied to the cells.
# [2] = tested on: secretory phosphatases present in HeLa cell conditioned medium; assay: Hydrogelation in HeLa cell conditioned medium; format: biochemical, human; settings: 48 hours
# Procedure: 2×10^5 of cells in exponential growth phase were seeded in a 35 mm Petri dish with 1 mL complete culture medium. Following overnight incubation, 1 mL of new medium was replaced and incubated for 24 h at 5% CO2, 37° C. The medium was next removed and centrifuged at 10,000 rpm for 5 minutes. The suspension was placed into a 1.5 mL Eppendorf® tube and stored at −20° C. Stored conditioned medium was thawed and warmed to 37° C. in water bath immediately before use.
# HeLa cell conditioned medium (“CM”) dephosphorylates D-2a to form D-2b nanofibrils.
# HeLa cells [3] = assay: Negative stained TEM of pericellular hydrogel on HeLa cells; format: physicochemical, human; settings: HeLa cells treated with 280 μM D-2a
# Procedure: Carbon coated copper grids were glow-discharged to increase their hydrophilicity prior to use. Pericellular hydrogel/nanofibrils were obtained by incubating D-2a at 280 μM with HeLa cells for 2 hours. Cell culture medium was removed in order to expose the pericellular hydrogel. The carbon coated side of the grid was gently pressed onto the pericellular hydrogel for 1 second. Next, the sample-loaded surface was washed using a drop of ddH2O. To remove excess water from the grid, the edge of the grid was immediately tilted and blotted three times against a filter paper. The grid was stained by letting the grid touch a drop of 2.0% (w/v) uranyl acetate with the sample-loaded surface. Excessive stain solution was removed by gently touching the grid with a drop of ddH2O. The grid was then dried by touching the edge of the grid with a filter paper for 3 times. The grid was air dried for a few minutes and examined immediately.
# That is, the nanofibrils form nanonets. Similar to the nanofibrils of D-2b formed by the addition of ALP into the solution of D-2a in PBS buffer (FIG. 7), these cell-surface nanofibrils entangle with each other to form the matrices of the hydrogel.
# phosphatases = assay: Phosphatase activity assay of gel, suspension and control medium of HeLa cells; format: cell-based, human; settings: HeLa cells treated with 560 μM D-2a, after removing the hydrogel
# Procedure: Phosphatase activity was evaluated by the alkaline phosphatase assay using the Abcam Alkaline Phosphatase Assay Kit following the supplied protocol. In brief, 50 μL of 5 mM pNPP solution in assay buffer was mixed with 80 μL of the sample solutions in 96 well plate. The mixed solution was incubated at 25° C., protected from light. 20 μL of stop solution was added to each test and the OD at 405 nm of the solution was measured in a microplate reader.
# To verify whether the pericellular hydrogel/nanonets block the entry of secretory proteins/enzymes into the culture medium, the amount of phosphatases in four experimental samples was evaluated: blank medium (Blank), medium incubated with untreated HeLa cells (Control), the pericellular hydrogel from HeLa cells treated with 560 μM D-2a for 12 hours (Gel), and the suspension of the medium of HeLa cells treated with D-2a after removing the hydrogel (Suspension). The amount of phosphatases accumulated in the Gel is about 27 times higher than that found in the Control (FIG. 3B). […] In other words, the pericellular hydrogel/nanonets largely block cellular mass exchange between the cells and their environment.
# MES-SA cells = assay: Cell viability assay (MTT), MES-SA; format: cell-based; settings: 280 μM
# Procedure: Cells in exponential growth phase were seeded in a 96 well plate at a concentration of 2×10^4 cells/well. The cells were allowed to attach to the wells for 24 hours at 37° C., 5% CO2. The culture medium was removed and 100 μL culture medium containing compounds (immediately diluted from fresh prepared stock solution of 10 mM) at gradient concentrations (0 μM as the control) was placed into each well. After culturing at 37° C., 5% CO2 for 48 hours, each well was added by 10 μL of 5 mg/mL MTT (3-(4,5-dimethylthiazoL-2-yl)-2,5-diphenyltetrazolium bromide), and the plated cells were incubated in the dark for 4 hours. 100 μL 10% SDS with 0.01M HCl was added to each well to stop the reduction reaction and to dissolve the purple. After overnight incubation of the cells at 37° C., the OD at 595 nm of the solution was measured in a microplate reader. Data represent the mean±standard deviation of three independent experiments.
# active Caspase 3 = assay: Apoptosis pathway assay (ELISA), active Caspase 3; format: cell-based, human; settings: HeLa cells, 280 μM, at 24 and 32 hours of incubation
# Procedure: The apoptosis pathway was evaluated using the PathScan® Apoptosis Multi-Target Sandwich ELISA Kit (Cell Signaling Technology) following the supplied protocol. Cells in exponential growth phase were seeded in a 6 cm Petri dish at a concentration of 10×10^5 cells/dish (5 dishes). Cells were allowed to attach to the wells for 24 hours at 37° C., 5% CO2. The culture medium was removed and 5 mL medium containing 280 μM D-2a (immediately diluted from fresh prepared stock solution of 11.2 mM) was placed into each dish. At 0, 6, 12, 24, or 32 hours, the medium was removed and cells were washed three times with cold PBS buffer. 0.9 mL lysis buffer was used to lyse cells in each dish, and 0.9 mL of diluents buffer was used to dilute each of the cell lysate. The lysate was incubated in the provided 96 well plate at 4° C. for 24 hours.
# ELISA was used to quantify the amount of several key apoptosis signal molecules over time in the HeLa cells incubated with 280 μM D-2a (FIG. 3E).
# HeLa cells [4] = assay: Western blot of tubulin in pericellular nanonets versus CM; format: cell-based, human; settings: nanonets after 3 or 6 hours of incubation versus CM collected at 24 hours
# Procedure: To select the optimal incubation time for the collection of nanonets/hydrogel, HeLa cells were incubated with D-2a (for 3, 6, or 9 hours, respectively) to allow nanonet formation. The amount of tubulin (an indicator of autolysis) present in the nanonets/hydrogels at various time points was evaluated by Western blot and compared to the amount of tubulin present in conditioned media (“CM”) collected following 24 hours of incubation (FIG. 33A). […] The results also indicate the cell compatibility of the incubation and collection process for nanonets/hydrogel.
smiles,measurement,setting,value
"O=C(Cc1ccc2ccccc2c1)N[C@H](Cc1ccccc1)C(=O)N[C@H](Cc1ccccc1)C(=O)N[C@H](Cc1ccc(OP(=O)(O)O)cc1)C(=O)O [D-2a, Nap-D-Phe-D-Phe-D-Tyr(PO3H2)]",Pericellular hydrogel formation on HeLa cells,"HeLa cells [1]; 140 μM, 2 hours at 37° C.",Little hydrogelation
same,Pericellular hydrogel formation on HeLa cells,"HeLa cells [1]; 280 μM, 2 hours at 37° C.",formation of a hydrogel-like soft material (hydrogel) on the cell surface
same,Pericellular hydrogel formation on HeLa cells,"HeLa cells [1]; 560 μM D-2a in the presence of ALP (0.1 U/mL), 2 hours",hardly any pericellular hydrogelation
same,Pericellular hydrogel formation on HeLa cells,"HeLa cells [1]; 560 μM D-2a with phosphatase inhibitors (Pierce), 2 hours",prevent formation of the pericellular hydrogel
same,Pericellular hydrogel formation on HeLa cells,"HeLa cells [1]; 560 μM, 2 hours at 37° C.",formation of a hydrogel-like soft material (hydrogel) on the cell surface
same,Hydrogel formation in HeLa cell conditioned medium,[2]; 140 μM,fails to form a hydrogel
same,Hydrogel formation in HeLa cell conditioned medium,[2]; 280 μM,completely transforms from a solution to a hydrogel
same,Hydrogel formation in HeLa cell conditioned medium,[2]; 560 μM,completely transforms from a solution to a hydrogel
same,Diameter of nanofibrils of the pericellular hydrogel,HeLa cells [3],about 20 nm
same,Amount of phosphatases in the Suspension relative to the Control,phosphatases,significantly lower than that in the Control
same,Growth inhibition,MES-SA cells,inhibits the growth
same,Amount of active Caspase 3,active Caspase 3,increase significantly
same,Amount of tubulin (indicator of autolysis) in nanonets,HeLa cells [4],contain less tubulin than CM
